Details: Surface laser light scattering (SLLS); for viscosity: Liquid

FC(F)(F)/C=C/Cl [(E)-1-chloro-3,3,3-trifluoroprop-1-ene]
Details | surface tension liquid-gas [mN/m] | viscosity [mPa·s]
303.14 K | 13.3 | 0.2857
313.15 K | 12.37 | 0.2504
323.19 K | 10.89 | 0.2265
333.18 K | 9.74 | 0.2079
343.16 K | 8.62 | 0.1891
353.19 K | 7.58 | 0.1695
363.15 K | 6.4 | 0.1595
373.14 K | 5.38 | 0.1406
373.17 K | 5.38 | 0.1448
383.15 K | 4.37 | 0.1318
393.17 K | 3.41 | 0.1191
403.15 K | 2.45 | 0.1047

O=C(C(F)(F)C(F)(F)F)C(F)(C(F)(F)F)C(F)(F)F [dodecafluoro-2-methylpentan-3-one]
Details | surface tension liquid-gas [mN/m] | viscosity [mPa·s]
303.16 K | 10.09 | 0.585
313.12 K | 9.26 | 0.4939
313.18 K | 9.24 | 0.5033
323.15 K | 8.43 | 0.4357
333.12 K | 7.56 | 0.3776
343.15 K | 6.7 | 0.329
353.16 K | 5.84 | 0.2907
363.14 K | 4.99 | 0.2569
373.14 K | 4.19 | 0.228
383.13 K | 3.44 | 0.1998
393.15 K | 2.71 | 0.1719
403.17 K | 2.02 | 0.1471
413.18 K | 1.37 | 0.1309
423.15 K | 0.78 | 0.104
433.02 K | 0.27 | 0.0768
